These results are taken from patent US4839374A, “4-((Bicyclic heterocyclyl)-methyl and -hetero)-piperidines” (Janssen Pharmaceutica, N.V., priority 1987, dated 1989).

Read-outs that look alike come from different tables or passages of the source.

In one assay the test system is effects of serotonin. In words: Antagonistic activity on the effects of serotonin in the gastric lesion test (lesions induced by compound 48/80). Type of assay: in vivo, rats of a Wistar inbred strain. The note with it: Rattus norvegicus, po, read-out: gastric lesion test ED50. The method, then: Antagonistic activity on the effects of serotonin in the gastric lesion test.
The shock, followed by dead, can be avoided if the rats are pretreated with a classical H 1 antagonist.
Male rats of a Wistar inbred strain, weighing 220-250 g, were starved overnight, water being available ad libitum. The test compounds were administered orally as a solution or as a suspension in aqueous medium. A control rat and a "blank" rat received the test compound. One hour later 5-[4-(diphenylmethyl)1-piperazinylmethyl]-1-methyl-1H-benzimidazole-2-methanol was administered subcutaneously to all rats at the dose of 2.5 mg/kg. […] Four hours after the intravenous injection of compound 48/80, the rats were decapitated and the stomachs were removed. Subsequently the stomachs were inspected for distension and contents (blood, fluid, food) and thoroughly rinsed. The macroscopic lesions were scored from 0 to +++, 0 corresponding to complete absence of visible lesions and the highest score corresponding to reddish rough patches covering more than half the glandular area.
The second column of tables 1-4 show for a number of compounds of formula (I) the doses (in mg/kg body weight) at which the distension of the stomach as well as the lesions in the glandular area of the stomach are completely absent in 50% of the test rats (ED50 -value).

Assay [1] relates to compound 48/80-induced lethality. Description: Protection of rats from compound 48/80-induced lethality. Type of assay: in vivo, rats of an inbred Wistar strain. Particulars: Rattus norvegicus, 4 h, read-out: Compound 48/80 lethality test in rats ED50, s.c. or p.o. 1 h before compound 48/80 0.5 mg/kg i.v.; protection of 50% of animals, survival after 4 hours. The method in brief: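 Male inbred Wistar rats (240-260 g), starved overnight, dosed subcutaneously or orally with compound or 0.9% NaCl before compound 48/80 challenge. Survival at 4 hours counted as protection. ED50 in mg/kg is the dose protecting 50% of animals from lethality.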

Setting [2] is: compound 48/80 1 mg/kg i.v., distension and lesions of stomach completely absent in 50% of rats.

`Cc1nc2n(c(=O)c1CCN1CCC(Cc3nc4ccccc4n3Cc3cccs3)CC1)CCCC2` [Compound 263]: the ED50 (in the assay on effects of serotonin; in assay [1]) was 0.04 mg/kg in each case.

In the case of `Fc1ccc(Cn2c(CC3CCN(CCNc4cc(Cl)ncn4)CC3)nc3ccccc32)cc1` [Compound 384], the ED50 worked out at 0.63 mg/kg in the assay with effects of serotonin (setting [2]) and 0.08 mg/kg in assay [1].

`O=c1[nH]c2ccccc2n1CCCN1CCC(Cc2nc3ccccc3n2Cc2ccc(F)cc2)CC1` [Compound 207]: the ED50 (in the assay with effects of serotonin; in assay [1]) was 0.08 mg/kg in each case.

As to `COc1ccc(CCN2CCC(Cc3nc4cccnc4n3Cc3ccc(F)cc3)CC2)cc1` [Compound 236], the ED50 in the assay on effects of serotonin (setting [2]) stood at 0.63 mg/kg; in assay [1], 0.08 mg/kg.

In the case of `CC(=O)CCN1CCC(Cc2nc3ccccc3n2Cc2ccc(F)cc2)CC1` [Compound 102, 4-[4-[[1-[(4-fluorophenyl)methyl]-1H-benzimidazol-2-yl]methyl]-1-piperidinyl]-2-butanone], the ED50 is 0.31 mg/kg in the assay on effects of serotonin (setting [2]) and 0.02 mg/kg in assay [1].

Take `CC(C)NC(=O)CCN1CCC(Cc2nc3ccccc3n2Cc2ccc(F)cc2)CC1` [Compound 145, 4-[[1-[(4-fluorophenyl)methyl]-1H-benzimidazol-2-yl]methyl]-N-(1-methylethyl)-1-piperidinepropanamide]: the figures for the ED50 (with effects of serotonin (setting [2]); in assay [1]) were 0.16 mg/kg and 0.02 mg/kg, respectively.

With `Cc1nc2n(c(=O)c1CCN1CCC(Cc3nc4ccccc4n3Cc3cscn3)CC1)CCCC2` [Compound 262], the ED50 with effects of serotonin (setting [2]) was found to be 0.16 mg/kg; in assay [1] it was 0.04 mg/kg.

As for `Fc1ccc(Cn2c(CC3CCN(CCc4ccccn4)CC3)nc3ccccc32)cc1` [Compound 103, 1-[(4-fluorophenyl)methyl]-2-[[1-[2-(2-pyridinyl)ethyl]-4-piperidinyl]-methyl]-1H-benzimidazole], the values for the ED50 (in the assay with effects of serotonin (setting [2]); in assay [1]) were 0.16 mg/kg and 0.005 mg/kg, respectively.

As to `OCCN1CCC(Cc2nc3ccccc3n2Cc2ccc(F)cc2)CC1` [Compound 107, 4-[[1-[(4-fluorophenyl)methyl]-1H-benzimidazol-2-yl]methyl]-1-piperidineethanol], the ED50 worked out at 0.08 mg/kg in the assay on effects of serotonin and 0.04 mg/kg in assay [1].

For the molecule `O=c1c2ccccc2[nH]c(=S)n1CCN1CCC(Cc2nc3ccccc3n2Cc2ccc(F)cc2)CC1` [Compound 460, 3-[2-[4-[[1-[(4-fluorophenyl)methyl]-1H-benzimidazol-2-yl]methyl]-1-piperidinyl]ethyl]-2,3-dihydro-2-thioxo-4(1H)-quinazolinone], the ED50 stood at 0.63 mg/kg with effects of serotonin (setting [2]) and 0.08 mg/kg in assay [1].

Consider `N#CCN1CCC(Cc2nc3ccccc3n2Cc2ccc(F)cc2)CC1` [Compound 283], for which the figures for the ED50 (in the assay with effects of serotonin (setting [2]); in assay [1]) were 0.63 mg/kg and 0.04 mg/kg, respectively.

As to `CCOCCN1CCC(Cc2nc3cccnc3n2Cc2ccc(F)cc2)CC1` [Compound 126], the ED50 with effects of serotonin (setting [2]) worked out at 0.63 mg/kg; in assay [1], 0.04 mg/kg.

Turning to `CC(C)N1CCC(Cc2nc3ccccc3n2Cc2ccccc2)CC1` [Compound 94], the ED50 was determined as 0.63 mg/kg in the assay with effects of serotonin (setting [2]) and 0.08 mg/kg in assay [1].

In the case of `Fc1ccc(Cn2c(CC3CCN(CCOc4ncccn4)CC3)nc3ccccc32)cc1` [Compound 391, 1-[(4-fluorophenyl)methyl]-2-[[1-[2-(2-pyrimidinyloxy)ethyl]-4-piperidinyl]methyl]-1H-benzimidazole], the ED50 (with effects of serotonin (setting [2]); in assay [1]) was 0.02 mg/kg in each case.

Turning to `O=C(c1ccccc1)N(CCN1CCC(Cc2nc3ccccc3n2Cc2ccc(F)cc2)CC1)c1ncccn1` [Compound 508, N-[2-[4-[[1-[(4-fluorophenyl)methyl]-1H-benzimidazol-2-yl]methyl]-1-piperidinyl]ethyl]-N-(2-pyrimidinyl)benzamide], the ED50 in the assay with effects of serotonin (setting [2]) stood at 0.16 mg/kg; in assay [1] it was 0.08 mg/kg.

In the case of `O=c1cc[nH]c(NCCN2CCC(Cc3nc4ccccc4n3Cc3ccc(F)cc3)CC2)n1` [Compound 331, 2-[[2-[4-[[1-[(4-fluorophenyl)methyl]-1H-benzimidazol-2-yl]methyl]-1-piperidinyl]ethyl]amino]-4(1H)-pyrimidinone], the ED50 in the assay on effects of serotonin (setting [2]) was 0.02 mg/kg; in assay [1], 0.04 mg/kg.

Take `c1ccc(Cn2c(CC3CCN(CCNc4nc5cnccc5[nH]4)CC3)nc3ccccc32)cc1` [Compound 422, N-[2-[4-[[1-(phenylmethyl)-1H-benzimidazol-2-yl]methyl]-1-piperidinyl]ethyl]-1H-imidazo[4,5-c]pyridin-2-amine]: the ED50 (with effects of serotonin; in assay [1]) was 0.04 mg/kg in each case.

With `c1coc(Cn2c(CC3CCN(CCNc4nc5cnccc5[nH]4)CC3)nc3ccccc32)c1` [Compound 418, N-[2-[4-[[1-(2-furanylmethyl)-1H-benzimidazol-2-yl]methyl]-1-piperidinyl]ethyl]-1H-imidazo[4,5-c]pyridin-2-amine], the ED50 stood at 0.04 mg/kg in the assay on effects of serotonin and 0.02 mg/kg in assay [1].

For the molecule `S=C=NCCN1CCC(Cc2nc3ccccc3n2Cc2cccs2)CC1` [Compound 397], the ED50 (in the assay with effects of serotonin; in assay [1]) was 0.04 mg/kg in each case.

Regarding `Cc1nc2ccccn2c(=O)c1CCN1CCC(Cc2nc3ccccc3n2Cc2ccc(F)cc2)CC1` [Compound 214], the ED50 is 0.04 mg/kg with effects of serotonin and 0.08 mg/kg in assay [1].

In the case of `COc1ccc(CCN2CCC(Cc3nc4ccccc4n3Cc3ccsc3)CC2)cc1` [Compound 523, 2-[[1-[2-(4-methoxyphenyl)ethyl]-4-piperidinyl]methyl]-1-(3-thienylmethyl)-1H-benzimidazole], the ED50 in the assay with effects of serotonin (setting [2]) stood at 0.31 mg/kg; in assay [1] it was 0.04 mg/kg.

On to `Cc1cc(NCCN2CCC(Cc3nc4ccccc4n3Cc3ccc(F)cc3)CC2)nc(Cl)n1` [Compound 383, 2-chloro-N-[2-[4-[[1-[(4-fluorophenyl)methyl]-1H-benzimidazol-2-yl]methyl]-1-piperidinyl]ethyl]-6-methyl-4-pyrimidinamine], for which the ED50 with effects of serotonin (setting [2]) is 0.16 mg/kg; in assay [1] it was 0.04 mg/kg.

On to `Fc1ccc(Cn2c(CC3CCN(CCN4CCOCC4)CC3)nc3ccccc32)cc1` [Compound 131], for which the ED50 in the assay on effects of serotonin (setting [2]) was found to be 0.16 mg/kg; in assay [1], 0.02 mg/kg.

On to `Cc1nc2n(c(=O)c1CCN1CCC(Cc3nc4ccccc4n3Cc3ccc(F)cc3)CC1)CCCC2` [Compound 498, 3-[2-[4-[[1-[(4-fluorophenyl)methyl]-1H-benzimidazol-2-yl]methyl]-1-piperidinyl]ethyl]-6,7,8,9-tetrahydro-2-methyl-4H-pyrido[1,2-a]pyrimidin-4-one], for which the values for the ED50 (in the assay on effects of serotonin (setting [2]); in assay [1]) were 0.16 mg/kg and 0.08 mg/kg, respectively.

Turning to `Oc1ccc(CCN2CCC(Cc3nc4ccc(O)cc4n3Cc3ccc(F)cc3)CC2)cc1` [Compound 505, 1-[(4-fluorophenyl)methyl]-2-[[1-[2-(4-hydroxyphenyl)ethyl]-4-piperidinyl]-methyl]-1H-benzimidazol-6-ol], the ED50 (in the assay on effects of serotonin; in assay [1]) was 0.04 mg/kg in each case.

Turning to `Fc1ccc(Cn2c(CC3CCN(CCNc4nc5cnccc5s4)CC3)nc3ccccc32)cc1` [Compound 332, N-[2-[4-[[1-[(4-fluorophenyl)methyl]-1H-benzimidazol-2-yl]methyl]-1-piperidinyl]ethyl]thiazolo[4,5-c]pyridin-2-amine], the ED50 (in the assay on effects of serotonin; in assay [1]) was 0.08 mg/kg each time.

Turning to `O=c1[nH]c2ccccc2c(=O)n1CCCCN1CCC(Cc2nc3ccccc3n2Cc2ccc(F)cc2)CC1` [Compound 489, 3-[4-[4-[[1-[(4-fluorophenyl)methyl]-1H-benzimidazol-2-yl]methyl]-1-piperidinyl]butyl]-2,4(1H,3H)-quinazolinedione], the ED50 in the assay with effects of serotonin (setting [2]) came out at 0.63 mg/kg; in assay [1], 0.08 mg/kg.
